Assay [1] relates to MOLM-14 D835Y (endogenous FLT3 ITD and transfected FLT3 D835Y). Kind of assay: MOLM-14 D835Y cell proliferation assay (CellTiter-Glo). Format: cell-based. The settings on record: Homo sapiens, MOLM-14, 72 h; 3 d growth, GMean. In short, it runs like this: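 MOLM-14 cells (FLT3 ITD) carrying D835Y or F691L, 1×10^4 cells/well, eight 1:3 dilutions from 1 μM final, 0.2% DMSO, 3 days at 37 °C, 5% CO2. Viability by CellTiter-Glo luminescence (ATP content); IC50 from concentration-response.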

The target in assay [2] is T1, FLT3-ITD (Homo sapiens, UniProt P36888).
T1 sequence (P36888 1-993): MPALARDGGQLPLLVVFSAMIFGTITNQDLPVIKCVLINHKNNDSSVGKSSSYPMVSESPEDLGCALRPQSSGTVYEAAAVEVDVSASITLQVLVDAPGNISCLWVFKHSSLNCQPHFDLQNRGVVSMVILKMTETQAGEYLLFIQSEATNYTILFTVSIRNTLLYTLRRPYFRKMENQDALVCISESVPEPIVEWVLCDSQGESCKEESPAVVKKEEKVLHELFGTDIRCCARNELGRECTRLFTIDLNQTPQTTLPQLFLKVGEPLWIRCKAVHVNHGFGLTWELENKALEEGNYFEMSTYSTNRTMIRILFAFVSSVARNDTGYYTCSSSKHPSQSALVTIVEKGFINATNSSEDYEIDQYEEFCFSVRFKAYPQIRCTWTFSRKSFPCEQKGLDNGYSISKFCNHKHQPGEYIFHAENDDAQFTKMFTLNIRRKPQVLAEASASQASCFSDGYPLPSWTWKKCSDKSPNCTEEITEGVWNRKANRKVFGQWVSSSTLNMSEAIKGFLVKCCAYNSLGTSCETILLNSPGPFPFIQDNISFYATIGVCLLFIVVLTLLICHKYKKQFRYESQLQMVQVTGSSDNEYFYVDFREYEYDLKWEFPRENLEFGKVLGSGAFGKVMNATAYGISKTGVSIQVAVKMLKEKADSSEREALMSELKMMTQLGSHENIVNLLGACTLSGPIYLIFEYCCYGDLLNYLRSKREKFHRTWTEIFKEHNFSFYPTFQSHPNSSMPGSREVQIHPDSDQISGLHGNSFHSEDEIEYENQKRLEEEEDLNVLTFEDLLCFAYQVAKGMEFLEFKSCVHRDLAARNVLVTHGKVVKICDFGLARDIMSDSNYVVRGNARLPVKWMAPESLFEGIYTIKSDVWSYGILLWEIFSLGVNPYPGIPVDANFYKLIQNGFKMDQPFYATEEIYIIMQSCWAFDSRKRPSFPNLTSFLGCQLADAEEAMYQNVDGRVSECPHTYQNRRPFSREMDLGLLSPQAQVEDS
Kind of assay: FLT3-ITD recombinant enzyme kinase assay (AlphaScreen). In kind it is biochemical. The following applies: 8 pt; read-out: FLT3_ITD 8 pt: IC50. The method in brief:
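Kinase activity of recombinant FLT3-ITD, FLT3-D835Y and c-KIT was followed via phosphotyrosine formation on a 30 nM biotin-peptide substrate, captured on streptavidin donor and anti-phosphotyrosine acceptor AlphaScreen beads. ATP was set at 10 μM for FLT3 and 100 μM for c-KIT.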

This passage reports IC50 results from patent publication US10160747B2, “Compounds and methods for kinase modulation, and indications therefor” (Plexxikon Inc., priority 2016, dated 2018).

Consider `Cc1ncc(NC(=O)Cc2ccc(-c3cnc4c(c3)C3(CC3)C(=O)N4)cc2F)cc1C(F)(F)F` [Compound P-0057, 2-[2-fluoro-4-(2-oxospiro[1H-pyrrolo[2,3-b]pyridine-3,1′-cyclopropane]-5-yl)phenyl]-N-[6-methyl-5-(trifluoromethyl)-3-pyridyl]acetamide], for which the concentration for half-maximal inhibition (IC50) in assay [1] and in assay [2] was 0.0001 to 10 µM throughout. Take `CCC(=O)c1c[nH]c2ncc(-c3ccc(CC(=O)Nc4cncc(C(F)(F)F)c4)c(F)c3)cc12` [Compound P-0068, 2-[2-fluoro-4-(3-propanoyl-1H-pyrrolo[2,3-b]pyridin-5-yl)phenyl]-N-[5-(trifluoromethyl)-3-pyridyl]acetamide]: the concentration for half-maximal inhibition (IC50) in assay [1] and in assay [2] was 0.0001 to 10 µM throughout. `O=C(Cc1ccc(-c2cnc3[nH]cc(F)c3c2)cc1F)Nc1cc(Cl)c(C2CC2)cn1` [Compound P-0044, N-(4-chloro-5-cyclopropyl-2-pyridyl)-2-[2-fluoro-4-(3-fluoro-1H-pyrrolo[2,3-b]pyridin-5-yl)phenyl]acetamide]: the half-inhibitory concentration (IC50) in assay [1] and in assay [2] was 0.0001 to 10 µM each time. In the case of `Cc1ncc(NC(=O)Cc2ccc(-c3cnc4[nH]cc(Cl)c4n3)cc2)cc1C(F)(F)F` [Compound P-0079, 2-(4-(7-chloro-5H-pyrrolo[2,3-b]pyrazin-2-yl)phenyl)-N-(6-methyl-5-(trifluoromethyl)pyridin-3-yl)acetamide], the IC50 in assay [1] and in assay [2] was 0.0001 to 10 µM in each case. With `O=C(Cc1ccc(-c2cnc3[nH]nc(C4CC4)c3c2)cc1)Nc1cncc(C(F)(F)F)c1` [Compound P-0073, 2-[4-(3-cyclopropyl-1H-pyrazolo[3,4-b]pyridin-5-yl)phenyl]-N-[5-(trifluoromethyl)-3-pyridyl]acetamide], the IC50 in assay [1] and in assay [2] was 0.0001 to 10 µM each time. In the case of `O=C(Cc1ccc(-c2cnc3[nH]cc(Cl)c3n2)cc1F)Nc1cnc(Cl)c(C(F)(F)F)c1` [Compound P-0060, 2-[4-(7-chloro-5H-pyrrolo[2,3-b]pyrazin-2-yl)-2-fluoro-phenyl]-N-[6-chloro-5-(trifluoromethyl)-3-pyridyl]acetamide], the IC50 in assay [1] and in assay [2] was 0.0001 to 10 µM throughout. Consider `O=C(Cc1ccc(-c2cnc3[nH]cc(C(=O)C4CC4)c3c2)cc1F)Nc1ccnc(C(F)(F)F)c1` [Compound P-0032, 2-[4-[3-(cyclopropanecarbonyl)-1H-pyrrolo[2,3-b]pyridin-5-yl]-2-fluoro-phenyl]-N-[2-(trifluoromethyl)-4-pyridyl]acetamide], for which the concentration for half-maximal inhibition (IC50) in assay [1] and in assay [2] was 0.0001 to 10 µM each time. Regarding `O=C(Cc1ccc(-c2cnc(Nc3cnn4ccccc34)nc2)c(F)c1)Nc1cncc(C(F)(F)F)c1` [Compound P-0071, 2-[3-fluoro-4-[2-(pyrazolo[1,5-a]pyridin-3-ylamino)pyrimidin-5-yl]phenyl]-N-[5-(trifluoromethyl)-3-pyridyl]acetamide], the IC50 in assay [1] and in assay [2] was 0.0001 to 10 µM throughout. As for `O=C(Cc1ccc(-c2cnc(Nc3cnn4ccccc34)nc2)cc1F)Nc1cncc(C(F)(F)F)c1` [Compound P-0058, 2-[2-fluoro-4-[2-(pyrazolo[1,5-a]pyridin-3-ylamino)pyrimidin-5-yl]phenyl]-N-[5-(trifluoromethyl)-3-pyridyl]acetamide], the IC50 in assay [1] and in assay [2] was 0.0001 to 10 µM throughout. For the compound `CC(=O)c1c[nH]c2ncc(-c3ccc(CC(=O)Nc4ccnc(C(F)(F)F)c4)c(F)c3)cc12` [Compound P-0031, 2-(4-(3-acetyl-1H-pyrrolo[2,3-b]pyridin-5-yl)-2-fluorophenyl)-N-(2-(trifluoromethyl)pyridin-4-yl)acetamide], the half-inhibitory concentration (IC50) in assay [1] and in assay [2] was 0.0001 to 10 µM in each case. In the case of `COc1ncc(NC(=O)Cc2ccc(-c3cnc4[nH]cc(Cl)c4n3)cc2F)cc1C(F)(F)F` [Compound P-0047, 2-[4-(7-chloro-5H-pyrrolo[2,3-b]pyrazin-2-yl)-2-fluoro-phenyl]-N-[6-methoxy-5-(trifluoromethyl)-3-pyridyl]acetamide], the IC50 in assay [1] and in assay [2] was 0.0001 to 10 µM in each case. On to `O=C(Cc1cc(F)c(-c2cnc(Nc3cnn4ccccc34)nc2)cc1F)Nc1cncc(C(F)(F)F)c1` [Compound P-0075, 2-[2,5-difluoro-4-[2-(pyrazolo[1,5-a]pyridin-3-ylamino)pyrimidin-5-yl]phenyl]-N-[5-(trifluoromethyl)-3-pyridyl]acetamide], for which the IC50 in assay [1] and in assay [2] was 0.0001 to 10 µM each time. Consider `O=C(Cc1ccc(-c2cnc(Nc3cnn4ccccc34)nc2)cc1)Nc1cncc(C(F)(F)F)c1` [Compound P-0074, 2-[4-[2-(pyrazolo[1,5-a]pyridin-3-ylamino)pyrimidin-5-yl]phenyl]-N-[5-(trifluoromethyl)-3-pyridyl]acetamide], for which the IC50 in assay [1] and in assay [2] was 0.0001 to 10 µM throughout. As to `CC(=O)c1c[nH]c2ncc(-c3ccc(CC(=O)Nc4cncc(C(F)(F)F)c4)c(F)c3)cc12` [Compound P-0055, 2-[4-(3-acetyl-1H-pyrrolo[2,3-b]pyridin-5-yl)-2-fluoro-phenyl]-N-[5-(trifluoromethyl)-3-pyridyl]acetamide], the IC50 in assay [1] and in assay [2] was 0.0001 to 10 µM each time. Turning to `COc1ncc(NC(=O)Cc2cc(F)c(-c3cnc4[nH]cc(F)c4c3)cc2F)cc1C(F)(F)F` [Compound P-0051, 2-[2,5-difluoro-4-(3-fluoro-1H-pyrrolo[2,3-b]pyridin-5-yl)phenyl]-N-[6-methoxy-5-(trifluoromethyl)-3-pyridyl]acetamide], the 50% inhibitory concentration (IC50) in assay [2] is 0.0001 to 10 µM. In the case of `COc1ncc(NC(=O)Cc2ccc(-c3cnc(Nc4cn[nH]c4)nc3)cc2)cc1C(F)(F)F` [Compound P-0025, N-[6-methoxy-5-(trifluoromethyl)-3-pyridyl]-2-[4-[2-(1H-pyrazol-4-ylamino)pyrimidin-5-yl]phenyl]acetamide], the concentration for half-maximal inhibition (IC50) in assay [1] and in assay [2] was 0.0001 to 10 µM in each case.

For the compound `Cn1cnc(Nc2ncc(-c3ccc(CC(=O)Nc4cc(C(C)(F)F)ccn4)cc3F)cn2)c1` [Compound P-0171, N-[4-(1,1-difluoroethyl)-2-pyridyl]-2-[3-fluoro-4-[2-[(1-methylimidazol-4-yl)amino]pyrimidin-5-yl]phenyl]acetamide], the IC50 in assay [2] lay within 0.0001 to 10 µM.

`O=C(Cc1ccc(-c2cnc3[nH]c(Cl)cc3c2)cc1F)Nc1ccnc(C(F)(F)F)c1` [Compound P-0030, 2-[4-(2-chloro-1H-pyrrolo[2,3-b]pyridin-5-yl)-2-fluoro-phenyl]-N-[2-(trifluoromethyl)-4-pyridyl]acetamide]: the half-maximal inhibitory concentration (IC50) in assay [2] lay in the range of 0.0001 to 10 µM. On the same count and under the same terms, the same measure for `COc1ncc(NC(=O)Cc2ccc(-c3cnc4[nH]c(Cl)cc4c3)c(F)c2)cc1C(F)(F)F` [Compound P-0046, 2-[4-(2-chloro-1H-pyrrolo[2,3-b]pyridin-5-yl)-3-fluoro-phenyl]-N-[6-methoxy-5-(trifluoromethyl)-3-pyridyl]acetamide]: 0.0001 to 10 µM; for `Cn1cc(Nc2ncc(-c3ccc(CC(=O)NCc4ccc(C(F)(F)F)cn4)cc3)cn2)cn1` [Compound P-0162, 2-[4-[2-[(1-methylpyrazol-4-yl)amino]pyrimidin-5-yl]phenyl]-N-[[5-(trifluoromethyl)-2-pyridyl]methyl]acetamide]: 0.0001 to 10 µM; for `Cc1cc(CC(=O)Nc2cccc(C(F)(F)F)c2)ccc1-c1cnc2[nH]c(-c3ccccc3)cc2c1` [Compound P-0002, 2-[3-methyl-4-(2-phenyl-1H-pyrrolo[2,3-b]pyridin-5-yl)phenyl]-N-[3-(trifluoromethyl)phenyl]acetamide]: 0.0001 to 10 µM. In the case of `COc1ncc(NC(=O)Cc2cc(F)c(-c3cnc4[nH]c(Cl)cc4c3)cc2F)cc1C(F)(F)F` [Compound P-0045, 2-[4-(2-chloro-1H-pyrrolo[2,3-b]pyridin-5-yl)-2,5-difluoro-phenyl]-N-[6-methoxy-5-(trifluoromethyl)-3-pyridyl]acetamide], the IC50 in assay [2] was 0.0001 to 10 µM. Turning to `O=C(Cc1ccc(-c2cnc3[nH]cc(F)c3c2)cc1F)Nc1ccnc(C(F)(F)F)c1` [Compound P-0029, 2-[2-fluoro-4-(3-fluoro-1H-pyrrolo[2,3-b]pyridin-5-yl)phenyl]-N-[2-(trifluoromethyl)-4-pyridyl]acetamide], the IC50 in assay [2] was in the range of 0.0001 to 10 µM.
